According to ChEMBL document CHEMBL1133517, “Design, radiosynthesis, and biodistribution of a new potent and selective ligand for in vivo imaging of the adenosine A(2A) receptor system using positron emission tomography” (J Med Chem, 2000):

Experiments:
Adenosine receptor A3 [1] = biological target: T1, Adenosine receptor A3 (Rattus norvegicus, UniProt P28647); experiment: Inhibitory activity against rat adenosine A3 receptor expressed in HEK293 cells by displacement of [125I]AB-MECA; type: cell-based
T1 sequence (P28647 whole entry): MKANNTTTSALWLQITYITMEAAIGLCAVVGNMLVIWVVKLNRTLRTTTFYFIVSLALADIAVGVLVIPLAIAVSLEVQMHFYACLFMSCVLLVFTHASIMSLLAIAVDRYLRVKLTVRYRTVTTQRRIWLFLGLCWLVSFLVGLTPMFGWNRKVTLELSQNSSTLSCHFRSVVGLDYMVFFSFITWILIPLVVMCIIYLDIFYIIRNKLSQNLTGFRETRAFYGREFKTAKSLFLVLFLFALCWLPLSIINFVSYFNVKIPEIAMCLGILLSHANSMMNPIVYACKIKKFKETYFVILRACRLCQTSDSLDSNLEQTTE

Adenosine receptor A2b = biological target: T2, Adenosine receptor A2b (Homo sapiens, UniProt P29275); experiment: Inhibitory activity against human adenosine A2B receptor expressed in HEK293 cells by displacement of [3H]DPCPX; type: cell-based
T2 sequence (P29275 whole entry): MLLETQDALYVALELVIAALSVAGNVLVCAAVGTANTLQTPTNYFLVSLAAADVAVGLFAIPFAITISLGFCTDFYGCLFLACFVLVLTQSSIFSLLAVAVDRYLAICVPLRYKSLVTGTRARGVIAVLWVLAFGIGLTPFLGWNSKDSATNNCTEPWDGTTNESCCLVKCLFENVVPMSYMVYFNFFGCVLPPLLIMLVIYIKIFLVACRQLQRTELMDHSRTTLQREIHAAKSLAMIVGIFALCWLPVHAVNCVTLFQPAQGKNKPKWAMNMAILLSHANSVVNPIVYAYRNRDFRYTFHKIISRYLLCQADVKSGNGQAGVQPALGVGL

Adenosine receptor A3 [2] = biological target: T3, Adenosine receptor A3 (Homo sapiens, UniProt P0DMS8); experiment: Displacement of [125I]AB-MECA from human adenosine A3 receptor expressed in HEK293 cells; type: cell-based
T3 sequence (P0DMS8 whole entry): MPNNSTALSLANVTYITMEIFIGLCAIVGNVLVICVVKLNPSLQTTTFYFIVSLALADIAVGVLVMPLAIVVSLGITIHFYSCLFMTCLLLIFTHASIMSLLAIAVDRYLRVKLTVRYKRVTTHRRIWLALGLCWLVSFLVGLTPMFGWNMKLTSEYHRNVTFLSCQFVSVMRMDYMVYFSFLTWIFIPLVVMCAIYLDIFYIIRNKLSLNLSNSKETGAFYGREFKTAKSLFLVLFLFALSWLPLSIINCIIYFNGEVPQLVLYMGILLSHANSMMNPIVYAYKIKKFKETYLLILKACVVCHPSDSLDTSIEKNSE

Adenosine receptor A1 [3] = biological target: T4, Adenosine receptor A1 (Rattus norvegicus, UniProt P25099); experiment: Displacement of [3H]DPCPX from adenosine A1 receptor in rat brain membranes; type: cell membranes
T4 sequence (P25099 whole entry): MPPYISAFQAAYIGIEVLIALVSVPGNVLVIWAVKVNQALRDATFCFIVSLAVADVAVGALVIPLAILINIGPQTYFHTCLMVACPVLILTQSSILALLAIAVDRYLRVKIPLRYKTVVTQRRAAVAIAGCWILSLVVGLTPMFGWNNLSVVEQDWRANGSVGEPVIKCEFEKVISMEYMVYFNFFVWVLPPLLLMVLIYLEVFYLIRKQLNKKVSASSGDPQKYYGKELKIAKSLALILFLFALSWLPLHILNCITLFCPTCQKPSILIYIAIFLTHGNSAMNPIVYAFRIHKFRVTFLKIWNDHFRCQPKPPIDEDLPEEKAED

Adenosine receptor A1 [4] = biological target: T5, Adenosine receptor A1 (Homo sapiens, UniProt P30542); experiment: Inhibitory activity against human adenosine A1 receptor expressed in CHO cells by displacement of [3H]DPCPX; type: cell-based
T5 sequence (P30542 whole entry): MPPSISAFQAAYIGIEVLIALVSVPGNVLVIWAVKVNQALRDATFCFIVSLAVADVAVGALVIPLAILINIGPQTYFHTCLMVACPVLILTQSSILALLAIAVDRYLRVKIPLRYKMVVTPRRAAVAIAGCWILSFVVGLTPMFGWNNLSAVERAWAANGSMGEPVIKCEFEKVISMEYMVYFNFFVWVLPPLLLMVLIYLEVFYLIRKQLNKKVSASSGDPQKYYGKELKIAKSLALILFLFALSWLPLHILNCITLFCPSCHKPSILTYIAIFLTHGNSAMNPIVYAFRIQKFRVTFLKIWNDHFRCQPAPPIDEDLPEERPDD

- Ki (Adenosine receptor A3 [1]): > 10 µM
- Ki (Adenosine receptor A2b): > 10 µM
- Ki (Adenosine receptor A3 [2]): > 10 µM
- Ki (Adenosine receptor A1 [3]): 1.81 µM
- Ki (Adenosine receptor A1 [4]): 1.11 µM
SMILES: COc1ccc(CCCn2ncc3c2nc(N)n2nc(-c4ccco4)nc32)cc1
